Patent publication EP3248604A1, “AGENTS FOR MODULATION OF WNT-TCF SIGNALLING AND USES THEREOF” (UNIVERSITE DE GENEVE, priority 2016, dated 2017)
Read-outs that look alike come from different tables or passages of the source.

Tests used:
WNT-TCF targets [1] = assay: RT-qPCR gene expression in Ls174T cells; format: cell-based, human; conditions: for fold induction at 0.5 µM / fold induction at 5 µM: Homo sapiens
Procedure: (§1) RT-qPCR was performed as in Melotti et al. (2014, supra) using BioRad equipment and reagents. Cells cultured in nitro were treated with the desired concentration of drug in DMEM-F12 and reduced serum (2.5% FBS) for 16h, unless otherwise noted, and collected in Trizol (Sigma) before total RNA extraction and cDNA synthesis. Primers were as in Table 1. HPRT (gene encoding Hypoxanthine phosphoribosyltransferase 1) and βACTIN were used as housekeeping controls for normalization.
Compounds have been tested for the transcriptional modulation of a restricted TCF signature in human colon cancer Ls174T cells. These included the direct targets AXIN2 (gene encoding a protein axis inhibition protein 2), LGR5 (gene encoding encodes leucine-rich repeat-containing G-protein coupled receptor 5) and cMYC (a regulator gene encoding a transcription factor), which should be repressed by WNT-TCF response antagonists and p21 (or CDKN1A, gene encoding a cyclin-dependent kinase inhibitor that inhibits the complexes of CDK2 and CDK1), which should be induced.

CC14 cells = assay: Epithelial island morphology of CC14 cells; format: cell-based, human; conditions: 24h; for epithelial island morphology: 1 µM
Procedure: Similar phenotypes were only observed at 10 µM of CAP1 or 5 µM of CAP3. CAP2 was thus chosen for further detailed analyses.

cell proliferation = assay: BrdU incorporation assay; format: cell-based; conditions: 10 µM; 16h
Procedure: Cells incubated in vitro with different compounds were treated in DMEM-F12 with reduced serum (2.5% FBS) for 20 min with BrdU (5-bromo-2'-deoxyuridine; 10mg/ml, Sigma), washed and fixed with fresh paraformaldehyde (PFA; 4%, pH 8) followed by acid treatment and neutralization (Melotti et al., 2014, supra). Antibody analyses used anti-BrdU antibodies (supplied by University of Iowa Hybridoma Bank) and rhodamine-coupled anti-mouse secondary antibodies (Invitrogen Molecular Probes). Nuclei were counterstained with DAPI (4',6-diamidino-2-phenylindole; Sigma).

WNT-TCF targets [2] = assay: RT-qPCR gene expression in CC14 primary colon cancer cells; format: cell-based, human; parameters: cMYC expression: scale not given here; conditions: 100 nM; Example 2 cells (CC14)
Procedure: as §1
Primary colon cells CC14 were cultured in DMEM-F12 with 10% FBS under standard in vitro conditions.
Primary colon cells CC14, CC36 and mCC11, colon cancer cell lines DLD1, HT29, Ls174T, melanoma cell line MeWo, glioblastoma cell lines U87 and U251, and the lung cancer cell line H358 were cultured in DMEM-F12 with 10% FBS under standard in nitro conditions.

[3] = LS174T, 16 h, read-out: AXIN2 expression
[4] = LS174T, 16 h, read-out: CDKN1A expression
[5] = LS174T, 16 h, read-out: cMYC expression
[6] = Ls174T, 0.5µM, 16h, over DMSO-treated controls, read-out: AXIN2 expression
[7] = Ls174T, 0.5µM, 16h, over DMSO-treated controls, read-out: CDKN1A expression
[8] = Ls174T, 0.5µM, 16h, over DMSO-treated controls, read-out: LGR5 expression
[9] = Ls174T, 0.5µM, 16h, over DMSO-treated controls, read-out: cMYC expression
[10] = Ls174T, 0.5µM, 16h, over DMSO-treated controls
[11] = Ls174T, 5µM, 16h, over DMSO-treated controls

2,6-dimethyltetrahydropyran-3,4,5-triol; ethane; 3-(3,14,16-trihydroxy-10,13-dimethyl-1,2,3,4,5,6,7,8,9,11,12,15,16,17-tetradecahydro cyclopenta[a]phenanthren-17-yl)-2H-furan-5-one [CAP3]
AXIN2 expression (WNT-TCF targets [1]; Ls174T, 10 µM, 16h): 0.7 | CDKN1A expression (WNT-TCF targets [1]; Ls174T, 10 µM, 16h): 6.3 | LGR5 expression (WNT-TCF targets [1]; Ls174T, 10 µM, 16h): 0.2 | cMYC expression (WNT-TCF targets [1]; Ls174T, 10 µM, 16h): 0.2 | epithelial island morphology (CC14 cells): maintained | concentration at which disrupted morphology phenotype was observed (CC14 cells): 5 µM

CC1=C(C)C(=O)O[C@@H]([C@@](C)(O)[C@]2(O)CC[C@@]3(O)[C@@H]4CC=C5C[C@@H](O[C@@H]6O[C@H](CO)[C@@H](O)[C@H](O)[C@H]6O)CC(=O)[C@]5(C)[C@H]4CC[C@]23C)C1 [CAP1, (14R,17S,20R,22R)-3β,14,17,20-Tetrahydroxy-1-oxo-witha-5,24-dienolide 3-O-β-D-glucopyranoside]
reduction of BrdU incorporation (cell proliferation): > 50% | AXIN2 expression (WNT-TCF targets [2]): 1.1 | LGR5 expression (WNT-TCF targets [2]): 0.8 | cMYC expression (WNT-TCF targets [2]): 1.2 | AXIN2 expression (WNT-TCF targets [1]; Ls174T, 10 µM, 16h): 0.7 | CDKN1A expression (WNT-TCF targets [1]; Ls174T, 10 µM, 16h): 2.5 | LGR5 expression (WNT-TCF targets [1]; Ls174T, 10 µM, 16h): 0.2 | cMYC expression (WNT-TCF targets [1]; Ls174T, 10 µM, 16h): 0.1 | epithelial island morphology (CC14 cells): maintained | concentration at which disrupted morphology phenotype was observed (CC14 cells): 10 µM

C[C@@H]1O[C@@H](O[C@H]2CC[C@]3(C=O)[C@H]4CC[C@]5(C)[C@@H](C6=CC(=O)OC6)CC[C@]5(O)[C@@H]4CC[C@]3(O)C2)[C@H](O)[C@H](O)[C@H]1O [Convallatoxin, convallatoxin, reference compound]
fold induction at 0.5 µM (WNT-TCF targets [1]; [3]): 1.7 | fold induction at 0.5 µM (WNT-TCF targets [1]; [4]): 0.3 | fold induction at 0.5 µM (WNT-TCF targets [1]; LS174T, 16 h, read-out: LGR5 expression): 1.6 | fold induction at 0.5 µM (WNT-TCF targets [1]; [5]): 0.2

CO[C@H]1C[C@H](O[C@H]2CC[C@]3(C=O)[C@H]4CC[C@]5(C)[C@@H](C6=CC(=O)OC6)CC[C@]5(O)[C@@H]4CC[C@]3(O)C2)O[C@H](C)[C@H]1O [Cymarin, cymarin, reference compound]
fold induction at 0.5 µM (WNT-TCF targets [1]; [6]): 1 | fold induction at 0.5 µM (WNT-TCF targets [1]; [7]): 0.9 | fold induction at 0.5 µM (WNT-TCF targets [1]; [8]): 0.9 | fold induction at 0.5 µM (WNT-TCF targets [1]; [9]): 1

C[C@H]1O[C@@H](O[C@H]2[C@@H](O)C[C@H](O[C@H]3[C@@H](O)C[C@H](O[C@H]4CC[C@@]5(C)[C@H](CC[C@@H]6[C@@H]5CC[C@]5(C)[C@@H](C7=CC(=O)OC7)CC[C@]65O)C4)O[C@@H]3C)O[C@@H]2C)C[C@H](O)[C@@H]1O [Digitoxin, digitoxin, reference compound]
fold induction at 0.5 µM (WNT-TCF targets [1]; [6]): 0.6 | fold induction at 0.5 µM (WNT-TCF targets [1]; [7]): 1.7 | fold induction at 0.5 µM (WNT-TCF targets [1]; [8]): 2.1 | fold induction at 0.5 µM (WNT-TCF targets [1]; [9]): 0.2 | LGR5 repression (WNT-TCF targets [1]; Ls174T, lower doses 100 and 10 nM): lack of repressing on LGR5

C[C@H]1O[C@@H](O[C@H]2[C@@H](O)C[C@H](O[C@H]3[C@@H](O)C[C@H](O[C@H]4CC[C@@]5(C)[C@H](CC[C@@H]6[C@@H]5C[C@@H](O)[C@]5(C)[C@@H](C7=CC(=O)OC7)CC[C@]65O)C4)O[C@@H]3C)O[C@@H]2C)C[C@H](O)[C@@H]1O [Digoxin, digoxin, reference compound]
fold induction at 0.5 µM (WNT-TCF targets [1]; [6]): 0.5 | fold induction at 0.5 µM (WNT-TCF targets [1]; [7]): 3 | fold induction at 0.5 µM (WNT-TCF targets [1]; [8]): 6.6 | fold induction at 0.5 µM (WNT-TCF targets [1]; [9]): 1.1

C[C@]12CC[C@H](O)C[C@H]1CC[C@@H]1[C@@H]2CC[C@]2(C)[C@@H](C3=CC(=O)OC3)[C@@H](O)C[C@]12O [Gitoxigenin, gitoxigenin, reference compound]
fold induction at 0.5 µM (WNT-TCF targets [1]; [6]): 1 | fold induction at 0.5 µM (WNT-TCF targets [1]; [7]): 0.3 | fold induction at 0.5 µM (WNT-TCF targets [1]; [8]): 0.6 | fold induction at 0.5 µM (WNT-TCF targets [1]; [9]): 0.4

C[C@H]1O[C@@H](O[C@H]2[C@@H](O)C[C@H](O[C@H]3[C@@H](O)C[C@H](O[C@H]4CC[C@@]5(C)[C@H](CC[C@@H]6[C@@H]5CC[C@]5(C)[C@@H](C7=CC(=O)OC7)[C@@H](O)C[C@]65O)C4)O[C@@H]3C)O[C@@H]2C)C[C@H](O)[C@@H]1O [Gitoxin, gitoxin, reference compound]
fold induction at 0.5 µM (WNT-TCF targets [1]; [3]): 0.4 | fold induction at 0.5 µM (WNT-TCF targets [1]; [4]): 1.3 | fold induction at 0.5 µM (WNT-TCF targets [1]; [5]): 0.8

CO[C@H]1[C@H](O)[C@H](O[C@H]2CC[C@@]3(C)[C@H](CC[C@@H]4[C@@H]3CC[C@]3(C)[C@@H](C5=CC(=O)OC5)CC[C@]43O)C2)O[C@@H](C)[C@@H]1O [Neriifolin, neriifolin, reference compound]
fold induction at 0.5 µM (WNT-TCF targets [1]; [6]): 1.2 | fold induction at 0.5 µM (WNT-TCF targets [1]; [8]): 1.8

CO[C@H]1C[C@H](O[C@H]2CC[C@@]3(C)[C@H](CC[C@@H]4[C@@H]3CC[C@]3(C)[C@@H](C5=CC(=O)OC5)[C@@H](OC(C)=O)C[C@]43O)C2)O[C@@H](C)[C@@H]1O [Oleandrin, oleandrin, reference compound]
fold induction at 0.5 µM (WNT-TCF targets [1]; [6]): 1.6 | fold induction at 0.5 µM (WNT-TCF targets [1]; [7]): 1.1 | fold induction at 0.5 µM (WNT-TCF targets [1]; [8]): 0.5 | fold induction at 0.5 µM (WNT-TCF targets [1]; [9]): 0.1

C[C@@H]1O[C@@H](O[C@H]2C[C@@H](O)[C@]3(CO)[C@H]4[C@H](O)C[C@]5(C)[C@@H](C6=CC(=O)OC6)CC[C@]5(O)[C@@H]4CC[C@]3(O)C2)[C@H](O)[C@H](O)[C@H]1O [Ouabain, ouabain, reference compound]
fold induction at 0.5 µM (WNT-TCF targets [1]; [6]): 0.8 | fold induction at 0.5 µM (WNT-TCF targets [1]; [7]): 10 | fold induction at 0.5 µM (WNT-TCF targets [1]; [8]): 3.3 | fold induction at 0.5 µM (WNT-TCF targets [1]; [9]): 0.5 | fold induction at 5 µM (WNT-TCF targets [1]; Ls174T, 5µM, 16h, over DMSO-treated controls, read-out: AXIN2 expression): 1 | fold induction at 5 µM (WNT-TCF targets [1]; Ls174T, 5µM, 16h, over DMSO-treated controls, read-out: LGR5 expression): 1.4

CC1=C(C)C(=O)O[C@@H]([C@](C)(O)[C@H]2CC[C@H]3[C@@H]4[C@@H]5O[C@@H]5[C@@]5(O)CC=CC(=O)[C@]5(C)[C@H]4CC[C@]23C)C1 [Withanolide A, withanolide A, reference compound]
AXIN2 expression (WNT-TCF targets [1]; [10]): 0.8 | CDKN1A expression (WNT-TCF targets [1]; [10]): 0.7 | LGR5 expression (WNT-TCF targets [1]; [10]): 0.8 | cMYC expression (WNT-TCF targets [1]; [10]): 0.4 | AXIN2 expression (WNT-TCF targets [1]; [11]): 1.8 | LGR5 expression (WNT-TCF targets [1]; [11]): 1.3

CC1=C(C)C(=O)O[C@@H]([C@@H](C)[C@H]2CC[C@H]3[C@@H]4[C@@H]5O[C@@H]5[C@@]5(O)CC=CC(=O)[C@]5(C)[C@H]4CC[C@]23C)C1 [Withanolide B, withanolide B, reference compound]
AXIN2 expression (WNT-TCF targets [1]; [10]): 1.1 | CDKN1A expression (WNT-TCF targets [1]; [10]): 1.9 | LGR5 expression (WNT-TCF targets [1]; [10]): 1.3 | cMYC expression (WNT-TCF targets [1]; [10]): 1.3 | AXIN2 expression (WNT-TCF targets [1]; [11]): 1.3 | LGR5 expression (WNT-TCF targets [1]; [11]): 1.4
